“And” between values parts separate entries of the source, which are not always exact repeats. Equal values may be shown once.
What was measured:
Format in all cases: in vivo
[1] = test system: ragweed (common ragweed, Ambrosia elatior); assay: Test A postemergence, ragweed; conditions: POST, 0 to 100 scale, approximately 10 d
Text: (§1) Seeds of plant species selected from barnyardgrass (BYG, Echinochloa crus-galli), kochia (KOC, Kochia scoparia), ragweed (common ragweed, Ambrosia elatior), ryegrass, Italian (RGI, Lolium multiflorum), foxtail, giant (FTI, Setaria faberii), foxtail, green (Setaria viridis) and pigweed (PWR, Amaranthus retroflexus) were planted into a blend of loam soil and sand and treated preemergence with a directed soil spray using test chemicals formulated in a non-phytotoxic solvent mixture which included a surfactant. At the same time, plants selected from these weed species and also wheat (WWT, Triticum aestivum), corn (CPI, Zea mays), blackgrass (BKG, Alopecurus myosuroides) and galium (GAL, catchweed bedstraw, Galium aparine) were planted in pots containing the same blend of loam soil and sand and treated with postemergence applications of test chemicals formulated in the same manner Plants ranged in height from 2 to 10 cm and were in the one- to two-leaf stage for the postemergence treatment. Treated plants and untreated controls were maintained in a greenhouse for approximately 10 d, after which time all treated plants were compared to untreated controls and visually evaluated for injury. Plant response ratings, summarized in Tables 1-4, are based on a 0 to 100 scale where 0 is no effect and 100 is complete control. A dash (−) response means no test result. The ratings are followed by a letter representing the symptomology where S is Albinism, C is Chlorosis, G is Growth Inhibition and E is Emergence.

[2] = test system: kochia (KOC, Kochia scoparia); assay: Test A preemergence, kochia; conditions: PRE, 0 to 100 scale, approximately 10 d
Text: as §1

[3] = test system: kochia (KOC, Kochia scoparia); assay: Test A postemergence, kochia; conditions: POST, 0 to 100 scale, approximately 10 d
Text: as §1

[4] = test system: foxtail, giant (FTI, Setaria faberii); assay: Test A postemergence, giant foxtail; conditions: POST, 0 to 100 scale, approximately 10 d
Text: as §1

[5] = test system: pigweed (PWR, Amaranthus retroflexus); assay: Test A postemergence, pigweed; conditions: POST, 0 to 100 scale, approximately 10 d
Text: as §1

[6] = test system: ryegrass, Italian (RGI, Lolium multiflorum); assay: Test A preemergence, Italian ryegrass; conditions: PRE, 0 to 100 scale, approximately 10 d
Text: as §1

[7] = test system: pigweed (PWR, Amaranthus retroflexus); assay: Test A preemergence, pigweed; conditions: PRE, 0 to 100 scale, approximately 10 d
Text: as §1

[8] = test system: galium (GAL, catchweed bedstraw, Galium aparine); assay: Test A postemergence, galium; conditions: POST, 0 to 100 scale, approximately 10 d
Text: as §1

[9] = test system: wheat (WWT, Triticum aestivum); assay: Test A postemergence, wheat; conditions: POST, 0 to 100 scale, approximately 10 d
Text: as §1

corn (CPI, Zea mays) = assay: Test A postemergence, corn; conditions: POST, 0 to 100 scale, approximately 10 d
Text: as §1

[10] = test system: ragweed (common ragweed, Ambrosia elatior); assay: Test A preemergence, ragweed; conditions: PRE, 0 to 100 scale, approximately 10 d
Text: as §1

[11] = test system: blackgrass (BKG, Alopecurus myosuroides); assay: Test A postemergence, blackgrass; conditions: POST, 0 to 100 scale, approximately 10 d
Text: as §1

[12] = test system: foxtail, giant (FTI, Setaria faberii); assay: Test A preemergence, giant foxtail; conditions: PRE, 0 to 100 scale, approximately 10 d
Text: as §1

[13] = test system: barnyardgrass (BYG, Echinochloa crus-galli); assay: Test A preemergence, barnyardgrass; conditions: PRE, 0 to 100 scale, approximately 10 d
Text: as §1

[14] = test system: ryegrass, Italian (RGI, Lolium multiflorum); assay: Test A postemergence, Italian ryegrass; conditions: POST, 0 to 100 scale, approximately 10 d
Text: as §1

[15] = test system: barnyardgrass (BYG, Echinochloa crus-galli); assay: Test A postemergence, barnyardgrass; conditions: POST, 0 to 100 scale, approximately 10 d
Text: as §1

[16] = 16 g ai/ha, listed as drawing 31
[17] = 125 g ai/ha, listed as drawing 31
[18] = 62 g ai/ha, listed as drawing 31
[19] = 31 g ai/ha, listed as drawing 31
[20] = 16 g ai/ha, listed as drawing 32
[21] = 125 g ai/ha, listed as drawing 32
[22] = 62 g ai/ha, listed as drawing 32
[23] = 31 g ai/ha, listed as drawing 32
[24] = 31 g ai/ha, listed as drawing 29
[25] = 125 g ai/ha, listed as drawing 29

## CCC(=O)Oc1c(Cl)nn(C)c(=O)c1-c1c(C)ccc2ccccc12 (racemic) [5 (Enantiomer 5A)]
[1]; [16]
  Plant response rating RWC: 80 S
[1]; 31 g ai/ha
  Plant response rating RWC: 90 S
[1]; 62 g ai/ha
  Plant response rating RWC: 90 S
[1]; [17]
  Plant response rating RWC: 90 S
[2]; 16 g ai/ha
  Plant response rating KOC: 10 C
[2]; [18]
  Plant response rating KOC: 70 S
[2]; [17]
  Plant response rating KOC: 80 S
[3]; [16]
  Plant response rating KOC: 70 S
[3]; 31 g ai/ha
  Plant response rating KOC: 70 S
[3]; [18]
  Plant response rating KOC: 80 S
[3]; [17]
  Plant response rating KOC: 80 S and 70 S
[4]; [16]
  Plant response rating FTI: 10 C
[4]; [19]
  Plant response rating FTI: 10 S
[4]; [18]
  Plant response rating FTI: 10 S
[4]; [17]
  Plant response rating FTI: 20 S and 30 S
[5]; [16]
  Plant response rating PWR: 80 S
[5]; 31 g ai/ha
  Plant response rating PWR: 90 S
[5]; 62 g ai/ha
  Plant response rating PWR: 90 S
[5]; [17]
  Plant response rating PWR: 90 S
[6]; 16 g ai/ha
  Plant response rating RGI: 0
[6]; 31 g ai/ha
  Plant response rating RGI: 0
[6]; [18]
  Plant response rating RGI: 0
[6]; [17]
  Plant response rating RGI: 30 S and 20 S
[7]; [16]
  Plant response rating PWR: 10 C
[7]; 31 g ai/ha
  Plant response rating PWR: 60 C and 100 C
[7]; [18]
  Plant response rating PWR: 90 C
[8]; 16 g ai/ha
  Plant response rating GAL: 90 S
[8]; [19]
  Plant response rating GAL: 90 S
[8]; 62 g ai/ha
  Plant response rating GAL: 100 S
[8]; 125 g ai/ha
  Plant response rating GAL: 100 S
[9]; [16]
  Plant response rating WWT: 0
[9]; [19]
  Plant response rating WWT: 0
[9]; [18]
  Plant response rating WWT: 0
[9]; [17]
  Plant response rating WWT: 0
Corn (CPI, Zea mays); 16 g ai/ha
  Plant response rating CPI: 0
Corn (CPI, Zea mays); [19]
  Plant response rating CPI: 0
Corn (CPI, Zea mays); 62 g ai/ha
  Plant response rating CPI: 0
[10]; [16]
  Plant response rating RWC: 0
[10]; [18]
  Plant response rating RWC: 90 C
[10]; [17]
  Plant response rating RWC: 100 C and 90 C
[11]; [16]
  Plant response rating BKG: 0
[11]; [19]
  Plant response rating BKG: 0
[11]; [18]
  Plant response rating BKG: 0
[12]; 16 g ai/ha
  Plant response rating FTI: 0
[12]; [18]
  Plant response rating FTI: 0
[13]; 16 g ai/ha
  Plant response rating BYG: 0
[13]; 31 g ai/ha
  Plant response rating BYG: 0
[13]; 62 g ai/ha
  Plant response rating BYG: 0
[14]; [16]
  Plant response rating RGI: 10 S
[14]; [18]
  Plant response rating RGI: 50 S
[15]; [16]
  Plant response rating BYG: 0
[15]; [18]
  Plant response rating BYG: 0
[15]; [17]
  Plant response rating BYG: 30 S and 20 S

## CCC(=O)Oc1c(Cl)nn(C)c(=O)c1-c1c(C)ccc2ccccc12 (racemic) [5 (Enantiomer 5B)]
[1]; [20]
  Plant response rating RWC: 90 S
[1]; [21]
  Plant response rating RWC: 100 S and 90 S
[2]; [22]
  Plant response rating KOC: 50 S
[2]; [21]
  Plant response rating KOC: 70 S and 50 S
[3]; [20]
  Plant response rating KOC: 50 S
[3]; [22]
  Plant response rating KOC: 70 S
[3]; [21]
  Plant response rating KOC: 80 S and 90 S
[4]; [20]
  Plant response rating FTI: 20 S
[4]; [23]
  Plant response rating FTI: 60 S and 50 S
[4]; [22]
  Plant response rating FTI: 60 S
[4]; [21]
  Plant response rating FTI: 90 S
[5]; [20]
  Plant response rating PWR: 90 S
[5]; [21]
  Plant response rating PWR: 100 S
[6]; [22]
  Plant response rating RGI: 10 S
[7]; [20]
  Plant response rating PWR: 0
[7]; [22]
  Plant response rating PWR: 60 G
[8]; [23]
  Plant response rating GAL: 90 S and 100 S
[9]; [20]
  Plant response rating WWT: 0
[9]; [22]
  Plant response rating WWT: 10 S
[9]; [21]
  Plant response rating WWT: 50 S
[10]; [20]
  Plant response rating RWC: 20 S
[10]; 31 g ai/ha
  Plant response rating RWC: 70 S and 50 S
[10]; [22]
  Plant response rating RWC: 70 S
[10]; [21]
  Plant response rating RWC: 100 C and 90 C
[11]; [20]
  Plant response rating BKG: 20 S
[11]; [22]
  Plant response rating BKG: 40 G
[11]; [21]
  Plant response rating BKG: 50 S and 80 S
[12]; [22]
  Plant response rating FTI: 30 S
[14]; [20]
  Plant response rating RGI: 40 C
[14]; [23]
  Plant response rating RGI: 70 C and 80 C
[14]; [22]
  Plant response rating RGI: 80 C
[15]; [20]
  Plant response rating BYG: 30 S
[15]; [22]
  Plant response rating BYG: 40 S
[15]; [21]
  Plant response rating BYG: 80 S and 90 S

## CCC(=O)Oc1c(Cl)nn(C)c(=O)c1-c1c(C)ccc2ccc(C)cc12 (racemic) [4 (Enantiomer 4A)]
[1]; [24]
  Plant response rating RWC: 80 S
[1]; [25]
  Plant response rating RWC: 90 S
[2]; 31 g ai/ha
  Plant response rating KOC: 10 C
[2]; [25]
  Plant response rating KOC: 50 S
[3]; 31 g ai/ha
  Plant response rating KOC: 50 S
[3]; [25]
  Plant response rating KOC: 60 S
[4]; [24]
  Plant response rating FTI: 0
[4]; [25]
  Plant response rating FTI: 30 S
[5]; [24]
  Plant response rating PWR: 90 S
[5]; [25]
  Plant response rating PWR: 100 C
[6]; [24]
  Plant response rating RGI: 0
[6]; [25]
  Plant response rating RGI: 10 C
[7]; [24]
  Plant response rating PWR: 90 C
[7]; [25]
  Plant response rating PWR: 90 C
[8]; [24]
  Plant response rating GAL: 80 S
[8]; [25]
  Plant response rating GAL: 100 C
[9]; [24]
  Plant response rating WWT: 0
[9]; [25]
  Plant response rating WWT: 0
Corn (CPI, Zea mays); [24]
  Plant response rating CPI: 0
Corn (CPI, Zea mays); [25]
  Plant response rating CPI: 0
[11]; [24]
  Plant response rating BKG: 10 C 10 C
[11]; [25]
  Plant response rating BKG: 10 C 10 C
[12]; [24]
  Plant response rating FTI: 0
[12]; [25]
  Plant response rating FTI: 10 S
[13]; [24]
  Plant response rating BYG: 0
[13]; [25]
  Plant response rating BYG: 0
[14]; [24]
  Plant response rating RGI: 10 C
[14]; [25]
  Plant response rating RGI: 20 C
[15]; [24]
  Plant response rating BYG: 0
[15]; [25]
  Plant response rating BYG: 30 C
